Assay results taken from patent US10188695B2, “Calcineurin inhibitors for use in the treatment of lesional vestibular disorders” (Institut National De La Santé Et De La Recherche Médicale, priority 2012, dated 2019).

Test system: excitotoxically induced lasting vestibular deficits
Assay: Kainic acid excitotoxic vestibular lesion in rats, spontaneous nystagmus by infra-red videonystagmography (FK-506 treatment)
Assay type: in vivo, rat
Details: t=24 h
Experimental: Two inverted 3 mm bolts partially encased in dental acrylic were surgically fixed to the skull of female Long-Evans rats under deep ketamine-xylazine anesthesia using self-tapping surgical screws and cyanoacrylate. Each animal was allowed to recover for 1 week before experiencing 4 training sessions with head fixation (5-10 min) of increasing duration in the week preceding the experiments.
Under visual control using a surgical microscope, each rat received transtympanic injections of 50 μL 15 mM kainic acid in physiological serum with 10 mg/mL benzyl alcohol at t=0 h and 25 μL 15 mM kanic acid in physiological serum with 10 mg/mL benzyl alcohol at t=2 h.
At t=1 h the behaviorally associated vestibular deficits of each transtympanically injected animal was determined using 5 classical criteria each scored on a 0-4 scale: Circling, head-bobbing, degree of head-tilt, tail-hanging reflex deficit and air-righting reflex deficit. […]
Spontaneous eye-movements were recorded at t=1 h and t=24 h in the dark using an ISCAN ETL-200 infra-red videooculography system under head-fixed conditions. […]
The spontaneous nystagmus frequency in videooculography traces recorded at t=1 h (pre-treatment) and t=24 h (chronic deficit) was determined using custom routines written in MatLab R2011b (The Mathworks, Natick, Mass.). […]

## C=CC[C@@H]1/C=C(\C)C[C@H](C)C[C@H](OC)[C@H]2O[C@@](O)(C(=O)C(=O)N3CCCC[C@H]3C(=O)O[C@H](/C(C)=C/[C@@H]3CC[C@@H](O)[C@H](OC)C3)[C@H](C)[C@@H](O)CC1=O)[C@H](C)C[C@@H]2OC [FK-506, tacrolimus]
Normalized to group mean at t=1 h, single i.p. injection 2.5 mg/kg at t=1 h, Long-Evans rats, in the dark
  normalized chronic spontaneous nystagmus frequency: 26.9±11.8%
Single i.p. injection 2.5 mg/kg, p=0.014
  reduction of lasting vestibular deficits (spontaneous nystagmus in the dark) vs sham: 43%
